Biological target: T1, phosphofructokinase (PFK, EC 2.7.1.11) (Escherichia coli, UniProt P0A796)
T1 construct: gene pfkA; native enzyme in whole-cell extract of mid-log micro-aerobic cells (sonication or glass beads), not purified; PFK-1 tetrameric; minor PFK-2 (pfkB) may be present
T1 sequence (P0A796 1-320): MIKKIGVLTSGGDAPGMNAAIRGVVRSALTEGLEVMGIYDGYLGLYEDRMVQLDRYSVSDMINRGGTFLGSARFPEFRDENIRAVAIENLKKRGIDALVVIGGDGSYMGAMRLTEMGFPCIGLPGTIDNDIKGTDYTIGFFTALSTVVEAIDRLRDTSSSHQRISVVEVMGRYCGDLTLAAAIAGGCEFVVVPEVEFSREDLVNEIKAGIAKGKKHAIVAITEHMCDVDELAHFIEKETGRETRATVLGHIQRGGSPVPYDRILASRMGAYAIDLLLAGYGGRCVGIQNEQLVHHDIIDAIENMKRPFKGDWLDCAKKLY
Test: […]-NMR progress curves, global fit to irreversible bi-substrate Hill equation with negative allosteric modifier
Format: biochemical
Conditions: allosteric inhibitor; co-substrates F6P and ATP; PEP 4 and 8 mM initial; 1 mM Mg2+; 100 mM PIPES pH 7.2, 25 °C; cell extract

Fitted parameters ^b: 0.0863 ± 0.0001 mM
SMILES: C=C(OP(=O)(O)O)C(=O)O [PEP]

Source: article PMC3901242, “Determining Enzyme Kinetics for Systems Biology with Nuclear Magnetic Resonance Spectroscopy” (Metabolites, 2012)
